Columns and labels:
[1] = test system: yellow nutsedge; experiment: Test C postemergence; assay type: in vivo, Cyperus esculentus; details: Cyperus, post-emergence
Text: (§1) Seeds of plant species selected from blackgrass (Alopecurus myosuroides), Italian ryegrass (Lolium multiflorum), wheat, winter (winter wheat, Triticum aestivum), galium (catchweed bedstraw, Galium aparine), corn (Zea mays), large (Lg) crabgrass (Digitaria sanguinalis), giant foxtail (Setaria faberii), johnsongrass (Sorghum halepense), lambsquarters (Chenopodium album), morningglory (Ipomoea coccinea), yellow nutsedge (Cyperus esculentus), pigweed (Amaranthus retroflexus), ragweed (common ragweed, Ambrosia elatior), soybean (Glycine max), barnyardgrass (Echinochloa crus-galli), oilseed rape (Brassica napus), waterhemp (common waterhemp, Amaranthus rudis), kochia (Kochia scoparia), wild oat (Avena fatua), surinam grass (Brachiaria decumbens), foxtail, green (green foxtail, Setaria viridis), goosegrass (Eleusine indica), bromegrass, downy (downy bromegrass, Bromus tectorum), nightshade (eastern black nightshade, Solanum ptycanthum), cocklebur (common cocklebur, Xanthium strumarium), cupgrass, woolly (woolly cupgrass, Eriochloa villosa), bermudagrass (Cynodon dactylon), sunflower, (common oilseed sunflower, Helianthus annuus), Russian thistle (Salsola kali), and velvetleaf (Abutilon theophrasti) were planted into a blend of loam soil and sand and treated preemergence with test chemicals formulated in a non-phytotoxic solvent mixture which included a surfactant.
(§2) At the same time, plants selected from these crop and weed species and also barley, winter (winter barley, Hordeum vulgare), windgrass (Apera spica-venti), chickweed (common chickweed, Stellaria media), deadnettle (henbit deadnettle, Lamium amplexicaule), and canarygrass (littleseed canarygrass, Phalaris minor) were planted in pots containing Redi-Earth® planting medium (Scotts Company, 14111 Scottslawn Road, Marysville, Ohio 43041) comprising spaghnum peat moss, vermiculite, wetting agent and starter nutrients and treated with postemergence applications of test chemicals formulated in the same manner. Plants ranged in height from 2 to 18 cm (1- to 4-leaf stage) for postemergence treatments. Treated plants and controls were maintained in a greenhouse for 13 to 15 days, after which time all species were compared to controls and visually evaluated. Plant response ratings, summarized in Table C, are based on a scale of 0 to 100 where 0 is no effect and 100 is complete control. A dash (-) response means no test result.

[2] = test system: soybean; experiment: Test C postemergence; assay type: in vivo, Glycine max; details: Glycine max, post-emergence
Text: as §1, §2

[3] = test system: giant foxtail; experiment: Test C postemergence; assay type: in vivo, Setaria faberii; details: Setaria faberi, post-emergence
Text: as §1, §2

[4] = test system: chickweed; experiment: Test C postemergence; assay type: in vivo, Stellaria media; details: Stellaria media, post-emergence
Text: as §1, §2

[5] = test system: giant foxtail; experiment: Test A preemergence; assay type: in vivo, Setaria faberii
How it was run: (§3)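 Pre- and postemergence greenhouse screen. Soil: loam + sand. Spray carrier: solvent mixture, non-phytotoxic, with surfactant. Post timing at 1–2 leaves, height 2–10 cm. Readout: visual injury on a 0–100 scale roughly 10 days after application, untreated plants as reference.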

[6] = test system: large (Lg) crabgrass; experiment: Test A postemergence; assay type: in vivo, Digitaria sanguinalis
How it was run: as §3

[7] = test system: johnsongrass; experiment: Test C postemergence; assay type: in vivo, Sorghum halepense; details: Sorghum halepense, post-emergence
Text: as §1, §2

[8] = test system: johnsongrass; experiment: Test C preemergence; assay type: in vivo, Sorghum halepense; details: preemergence
How it was run: (§4)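 Plants were kept under greenhouse conditions for 13–15 days following spray. Pre-emergent application went to soil (loam–sand), post-emergent to foliage at 1–4 leaves. Evaluation: visual, percent control against untreated checks.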

[9] = test system: galium; experiment: Test C preemergence; assay type: in vivo, Galium aparine; details: for Galium plant response rating: preemergence
Text: as §1, §2

[10] = test system: yellow nutsedge; experiment: Test C preemergence; assay type: in vivo, Cyperus esculentus; details: preemergence
Text: as §1, §2

[11] = test system: lambsquarters; experiment: Test C preemergence; assay type: in vivo, Chenopodium album; details: preemergence
Text: as §1, §2

[12] = test system: giant foxtail; experiment: Test C preemergence; assay type: in vivo, Setaria faberii; details: for Foxtail, Giant plant response rating: preemergence
How it was run: as §4

[13] = test system: large (Lg) crabgrass; experiment: Test C preemergence; assay type: in vivo, Digitaria sanguinalis; details: for Crabgrass, Large plant response rating: preemergence
Text: as §1, §2

[14] = 16 g ai/ha, scale 0 to 100 (0 no effect, 100 complete control)
[15] = 62 g ai/ha, scale 0 (no effect) to 100 (complete control)
[16] = 125 g ai/ha, scale 0 (no effect) to 100 (complete control)
[17] = Preemergence, 31 g ai/ha, scale 0 to 100, 0 no effect, 100 complete control
[18] = 125 g ai/ha, 0 to 100 scale where 0 is no effect and 100 is complete control
[19] = 500 g ai/ha, 0 to 100 scale where 0 is no effect and 100 is complete control

Compound: Fc1cnc(Oc2ccccc2-n2cc(Br)cn2)nc1 [Compound 10, 2-[2-(4-bromo-1H-pyrazol-1-yl)phenoxy]-5-fluoropyrimidine]
- pest or weed control at 125 g/ha ([1]; 125 g ai/ha, postemergence, read-out: Plant response rating (0 to 100), Nutsedge, Yellow): 5%
- pest or weed control at 250 g/ha ([1]; 250 g ai/ha, postemergence, read-out: Plant response rating (0 to 100), Nutsedge, Yellow): 5%
- pest or weed control at 31 g/ha ([1]; Postemergence, 31 g ai/ha, scale 0 to 100 (0 no effect, 100 complete control), 13 to 15 days, read-out: Plant response rating, Nutsedge, Yellow): 0%
- pest or weed control at 62 g/ha ([1]; Postemergence, 62 g ai/ha, scale 0 to 100 (0 no effect, 100 complete control), read-out: Plant response rating, Nutsedge, Yellow): 5%
- Soybean plant response rating (crop injury, 0-100 scale) at 125 g/ha ([2]; 125 g ai/ha, postemergence, read-out: Plant response rating (0 to 100), Soybean): 85%
- Soybean plant response rating (crop injury, 0-100 scale) at 250 g/ha ([2]; 250 g ai/ha, postemergence): 95%
- Soybean plant response rating (crop injury, 0-100 scale) at 31 g/ha ([2]; Postemergence, 31 g ai/ha, scale 0 to 100 (0 no effect, 100 complete control), 13 to 15 days): 50%
- Soybean plant response rating (crop injury, 0-100 scale) at 62 g/ha ([2]; Postemergence, 62 g ai/ha, scale 0 to 100 (0 no effect, 100 complete control)): 75%
- pest or weed control at 125 g/ha ([3]; 125 g ai/ha, postemergence, read-out: Plant response rating (0 to 100), Foxtail, Giant): 5%
- pest or weed control at 250 g/ha ([3]; 250 g ai/ha, postemergence, read-out: Plant response rating (0 to 100), Foxtail, Giant): 5%
- pest or weed control at 31 g/ha ([3]; Postemergence, 31 g ai/ha, scale 0 to 100 (0 no effect, 100 complete control), 13 to 15 days, read-out: Plant response rating, Foxtail, Giant): 0%
- pest or weed control at 62 g/ha ([3]; Postemergence, 62 g ai/ha, scale 0 to 100 (0 no effect, 100 complete control), read-out: Plant response rating, Foxtail, Giant): 0%
- pest or weed control at 125 g/ha ([4]; 125 g ai/ha, postemergence, read-out: Plant response rating (0 to 100), Chickweed): 35%
- pest or weed control at 250 g/ha ([4]; 250 g ai/ha, postemergence, read-out: Plant response rating (0 to 100), Chickweed): 98%
- pest or weed control at 31 g/ha ([4]; Postemergence, 31 g ai/ha, scale 0 to 100 (0 no effect, 100 complete control), 13 to 15 days, read-out: Plant response rating, Chickweed): 5%
- pest or weed control at 62 g/ha ([4]; Postemergence, 62 g ai/ha, scale 0 to 100 (0 no effect, 100 complete control), read-out: Plant response rating, Chickweed): 30%
- pest or weed control at 125 g/ha ([5]; Setaria faberi, pre-emergence, 240 h, 125 g ai/ha, 0 to 100 scale where 0 is no effect and 100 is complete control, read-out: Foxtail, Giant plant response rating): 90%
- pest or weed control at 500 g/ha ([5]; Setaria faberi, pre-emergence, 240 h, 500 g ai/ha, 0 to 100 scale, 0 no effect, 100 complete control, approx. 10 days, read-out: Foxtail, Giant plant response rating): 100%
- pest or weed control at 125 g/ha ([6]; Digitaria sanguinalis, post-emergence, 240 h, 125 g ai/ha, 0 to 100 scale where 0 is no effect and 100 is complete control, read-out: Plant response rating, Crabgrass, Large): 50%
- pest or weed control at 500 g/ha ([6]; Digitaria sanguinalis, post-emergence, 240 h, 500 g ai/ha, 0 to 100 scale, 0 no effect, 100 complete control, read-out: Plant response rating Crabgrass, Large): 80%
- pest or weed control at 125 g/ha ([7]; 125 g ai/ha, postemergence, read-out: Plant response rating (0 to 100), Johnsongrass): 5%
- pest or weed control at 250 g/ha ([7]; 250 g ai/ha, postemergence, read-out: Plant response rating (0 to 100), Johnsongrass): 10%
- pest or weed control at 31 g/ha ([7]; Postemergence, 31 g ai/ha, scale 0 to 100 (0 no effect, 100 complete control), 13 to 15 days, read-out: Plant response rating, Johnsongrass): 5%

Compound: Fc1cccc(Oc2ncc(Cl)cn2)c1-n1cc(I)cn1 [Compound 179]
- Johnsongrass plant response rating [8, 14]: 0
- Johnsongrass plant response rating [8, 15]: 65
- Johnsongrass plant response rating [8, 16]: 98
- Galium plant response rating [9, 14]: 90
- Galium plant response rating [9, 15]: 98
- Galium plant response rating [9, 16]: 100
- Plant response rating, Galium [9, 17]: 95
- Nutsedge, Yellow plant response rating [10, 14]: 0
- Nutsedge, Yellow plant response rating [10, 15]: 10
- Nutsedge, Yellow plant response rating [10, 16]: 15
- Lambsquarters plant response rating [11, 14]: 85
- Lambsquarters plant response rating [11, 15]: 100
- Lambsquarters plant response rating [11, 16]: 100
- Foxtail, Giant plant response rating [12, 14]: 40
- Foxtail, Giant plant response rating [12, 15]: 100
- Foxtail, Giant plant response rating [12, 16]: 100
- Plant response rating, Foxtail, Giant [12, 17]: 85
- Plant response rating, Foxtail, Giant [5, 18]: 100
- Foxtail, Giant plant response rating [5, 19]: 100
- Crabgrass, Large plant response rating [13, 14]: 55
- Crabgrass, Large plant response rating [13, 15]: 98
- Crabgrass, Large plant response rating [13, 16]: 100
- Plant response rating, Crabgrass, Large [13, 17]: 90
- Crabgrass, Large plant response rating [6, 18]: 90
- Plant response rating, Crabgrass, Large [6, 19]: 100

Source: patent US9695155B2, “Herbicidal substituted pyrimidinyloxy benzene compounds” (E. I. DU PONT DE NEMOURS AND COMPANY, priority 2013, dated 2017)
